For one series, the system named is FAP+ CAFs. Put plainly: Externalization from CAFs. It counts as cell-based, human. Conditions: after 24 h at 37 °C. On the procedure: (§1) For receptor saturation studies, FAP^+ CAFs were incubated with 0.1 to 10 nM of the radioligands. For internalization studies, approximately 2.5 pmol of the radioligands were added to CAFs followed by incubation for 15, 30, 60, 90, 120, 180 and 240 min for the ^68Ga-labeled or 30, 60, 120, 240 and 360 min for the ^177Lu-labeled radioligands at 37 °C, 5% CO2. For the externalization studies, approximately 2.5 pmol of the ^177Lu-labeled radioligands were added to CAFs followed by incubation for 2 h at 37 °C, 5% CO2. The amount of externalized activity was measured at 0, 10, 20, 30, 60, 120, 240, and 1440 min (Supplemental Data).
After the completion of the 2 hours of incubation, the medium was removed and CAF cells were washed with 1 mL of cold PBS (x2). The cells were then exposed to an acid wash with glycine buffer, as described above, to dissociate membrane-bound radioligand, and the fractions were collected. Fresh medium (1 mL/well) was added to the cells and were incubated at 37 °C. At different time points (10, 20, 30, 60, 120, 240 and 1440 minutes) the external medium was removed (followed by two washing steps with cold PBS). […] The radioactivity of the culture medium, the membrane-bound, the internalized and the externalized fractions were measured in a gamma-counter. The externalized fraction of radioactivity was expressed as the percentage of the total internalized amount.

The conditions of series [1]: cited from earlier work.
A further series relates to PC3-mice. Briefly: Organ clearance biological half-lives from biodistribution data. Format: in vivo, mouse. Conditions: for Bone clearance half-life, 95% confidence interval / Kidney clearance half-life, 95% confidence interval / Liver clearance half-life, 95% confidence interval / Pancreas clearance half-life, 95% confidence interval / Salivary glands clearance half-life, 95% confidence interval / Tumor clearance half-life, 95% confidence interval: PC3-mice, One-Phase Decay Model. The protocol: (§2) Blood samples were collected from the facial vein at 1, 3, 5, 7, 10, 15, 20, 30, 45, 60, 240, and 1440 min p.i., weighed, and measured for radioactivity using a γ-counter. Results were expressed as % I.A./g of blood and plotted over time. The initial and terminal half-lives were determined using Two-Phase Decay Model. The biological half-lives of selected organs were calculated from the biodistribution data using One-Phase Decay Model (GraphPad Prism 8).

A further series concerns the target T1, FAP (Homo sapiens, UniProt Q12884).
T1 construct: the CAF cells overexpressing FAP were seeded at a density of 0.8-1 million cells per well; host or cells: hTERT PF179T prostate cancer-associated fibroblasts
T1 sequence (Q12884 1-760): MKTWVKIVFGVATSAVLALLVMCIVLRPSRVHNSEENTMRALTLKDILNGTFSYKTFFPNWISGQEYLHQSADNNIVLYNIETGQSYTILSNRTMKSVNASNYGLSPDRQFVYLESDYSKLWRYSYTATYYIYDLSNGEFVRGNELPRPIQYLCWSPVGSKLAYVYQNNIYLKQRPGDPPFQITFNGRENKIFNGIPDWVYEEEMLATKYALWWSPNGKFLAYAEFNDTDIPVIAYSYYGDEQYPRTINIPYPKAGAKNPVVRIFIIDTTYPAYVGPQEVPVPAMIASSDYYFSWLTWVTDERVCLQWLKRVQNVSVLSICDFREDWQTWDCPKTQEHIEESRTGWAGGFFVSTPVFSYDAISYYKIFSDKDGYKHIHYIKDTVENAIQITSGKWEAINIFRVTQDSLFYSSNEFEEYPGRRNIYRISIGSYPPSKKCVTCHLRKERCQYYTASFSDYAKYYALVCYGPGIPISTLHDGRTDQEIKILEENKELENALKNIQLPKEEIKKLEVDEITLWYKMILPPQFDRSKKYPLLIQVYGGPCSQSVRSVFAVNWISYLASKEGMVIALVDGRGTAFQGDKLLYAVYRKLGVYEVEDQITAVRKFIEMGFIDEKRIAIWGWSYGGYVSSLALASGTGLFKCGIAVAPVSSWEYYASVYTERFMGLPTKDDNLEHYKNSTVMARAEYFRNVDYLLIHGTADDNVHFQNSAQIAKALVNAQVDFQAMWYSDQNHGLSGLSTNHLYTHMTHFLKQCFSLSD
Briefly: Saturation binding on FAP+ CAFs. Conditions: for Kd: 0.1 to 10 nM radioligand. On the procedure: as §1
For receptor saturation analysis, the CAF cells overexpressing FAP were seeded at a density of 0.8-1 million cells per well in 6-well plates, pre-coated with BME (Cultrex Reduced Growth Factor Basement Membrane Extract, RGF BME, R&D System, Minneapolis, USA) to enhance cell attachment. The cells were incubated overnight with medium (EMEM supplemented and containing 10% FBS, 100 U/mL penicillin and 100 μg/mL streptomycin). The next day, the medium was removed and the cells were incubated for 30 minutes at 37 °C, with 0.8 mL of fresh medium. Afterwards, the plates were placed on ice for 30 minutes followed by incubation with increasing concentrations of ^68/natGa- and ^177/natLu-labelled DOTAGA.Glu.(FAPI)2 and DO3A.Glu.( FAPI)2 (0.1-10 nM final concentration in the wells). After the addition of the radioligands, the cells were incubated for 120 minutes at 4 °C. Non-specific binding was determined in the presence of UAMC1110 at a final concentration of 1 μM. After the completion of the incubation, the cells were washed twice with ice-cold PBS, followed by solubilization with 1 M NaOH. The cell-associated radioactivity was measured using a gamma-counter. Specific binding was plotted against the total molar concentration of the added radiotracer. The Kd values and the concentration of the radioligand required to saturate the receptors (Bmax) were determined by nonlinear regression using GraphPad (Prism 8 Graph Pad Software, San Diego, CA). For all the cell studies the values are normalized for 1x10^6 cells per well and all data are from two independent experiments with triplicates in each experiment.

The nature of series [2]: Blood clearance kinetics in healthy mice. It counts as in vivo, mouse. Conditions: i.v., Two-Phase Decay Model. The protocol: as §2
[3] abbreviates: listed as 177/natLu-DOTAGA.Glu.(FAPI)2.
Setting [4] is: listed as 177/natLu-DO3A.Glu.(FAPI)2.

Structures are written as SMILES. Several values for one entry are separate records, joined by “and”; a condition that tells them apart may be missing. Equal entries are not always repeated.

As for `N#C[C@@H]1CC(F)(F)CN1C(=O)CNC(=O)c1ccnc2ccc(OCCCCNC(=O)CC[C@H](NC(=O)CCC(C(=O)O)N3CCN(CC(=O)[O-])CCN(CC(=O)[O-])CCN(CC(=O)[O-])CC3)C(=O)NCCCCOc3ccc4nccc(C(=O)NCC(=O)N5CC(F)(F)C[C@H]5C#N)c4c3)cc12.[177Lu+3]` (stereo partly drawn) [[^177Lu]Lu-DOTAGA.Glu.(FAPI)2], the “initially internalized activity released” value in the series with FAP+ CAFs was ~ 40%. For the same molecule, in series [1] (human dosimetry, mean), the “absorbed dose left colon” value was 0.31 ± 0.12 Gy/GBq and the “absorbed dose right colon” value is 0.22 ± 0.09 Gy/GBq. Moreover, in series [1] (human studies), the “biological half-life in bone metastases” value is given as 19.5 ± 7.3 h and the “biological half-life in soft tissue metastases” value was 22.1 ± 6.7 h. Further, in the series on PC3-mice, the “Bone clearance half-life, 95% confidence interval” value is 27.60 to 33.77 h; the “Kidney clearance half-life, 95% confidence interval” value is 23.41 to 38.84 h; the “Liver clearance half-life, 95% confidence interval” value lay within 70.61 to 362.5 h; the “Pancreas clearance half-life, 95% confidence interval” value was 16.87 to 39.95 h. Moreover, in the series with PC3-mice, the “Salivary glands clearance half-life, 95% confidence interval” value was 12.06 to 34.90 h and the “Tumor clearance half-life, 95% confidence interval” value is 19.85 to 32.80 h. The molecule also had a tumor biological half-life in the series on PC3-mice (PC3-tumors) of 25.5 h. Besides, on FAP (setting [3]), the dissociation constant Kd is 0.7 nM and 0.68 nM; the Bmax was 0.4 ± 0.02 nM and 0.36 ± 0.02 nM. Further, in series [2], the “Blood half life (initial)” value stood at 2.8 min; the “Blood half life (terminal)” value was 4.692 h and 4.7 h.

Take `N#C[C@@H]1CC(F)(F)CN1C(=O)CNC(=O)c1ccnc2ccc(OCCCCNC(=O)CC[C@H](NC(=O)CN3CCN(CC(=O)[O-])CCN(CC(=O)[O-])CCN(CC(=O)[O-])CC3)C(=O)NCCCCOc3ccc4nccc(C(=O)NCC(=O)N5CC(F)(F)C[C@H]5C#N)c4c3)cc12.[177Lu+3]` [[^177Lu]Lu-DO3A.Glu.(FAPI)2]: in the series with FAP+ CAFs, the “initially internalized activity released” value is on record as ~ 46%. In the series with PC3-mice, the “Bone clearance half-life, 95% confidence interval” value lay within 14.85 to 18.53 h; the “Kidney clearance half-life, 95% confidence interval” value lay within 18.73 to 31.89 h; the “Liver clearance half-life, 95% confidence interval” value was 51.46 to 92.13 h; the “Pancreas clearance half-life, 95% confidence interval” value was 12.66 to 19.50 h. Further, in the series on PC3-mice, the “Salivary glands clearance half-life, 95% confidence interval” value lay within 13.95 to 20.7 h and the “Tumor clearance half-life, 95% confidence interval” value was in the range of 17.58 to 22.85 h. On FAP (setting [4]), the Kd is 0.7 nM and 0.72 nM; the Bmax is 0.4 ± 0.02 nM and 0.37 ± 0.02 nM. For the same molecule, in series [2], the “Blood half life (initial)” value is listed as 1.3 min; the “Blood half life (terminal)” value was 4.172 h and 4.17 h.

(Values after PMC12860872, “Preclinical evaluation of DOTAGA.Glu.(FAPI)2 and DO3A.Glu.(FAPI)2 as theranostics with human dosimetry extrapolation to lutetium-177 and terbium-161 analogs” (European Journal of Nuclear Medicine and Molecular Imaging, 2025).)
